Results: publication PMC6328587 (Nature Communications, 2019)
Where a chain is given by its changes, count along the chain named. Entries after “also recorded” stand apart in the source; their conditions may differ. Read-outs that look alike come from different tables or passages of the source.

How the values were obtained:
ERK1 = target: T1, ERK1 (Homo sapiens, UniProt P27361); assay: ERK1 degradation, western blot in MDA-MB-231 cells; format: cell-based; conditions: 0.025-2.5 µM
T1 construct: endogenous in cells; host or cells: MDA-MB-231
T1 sequence (P27361 whole entry): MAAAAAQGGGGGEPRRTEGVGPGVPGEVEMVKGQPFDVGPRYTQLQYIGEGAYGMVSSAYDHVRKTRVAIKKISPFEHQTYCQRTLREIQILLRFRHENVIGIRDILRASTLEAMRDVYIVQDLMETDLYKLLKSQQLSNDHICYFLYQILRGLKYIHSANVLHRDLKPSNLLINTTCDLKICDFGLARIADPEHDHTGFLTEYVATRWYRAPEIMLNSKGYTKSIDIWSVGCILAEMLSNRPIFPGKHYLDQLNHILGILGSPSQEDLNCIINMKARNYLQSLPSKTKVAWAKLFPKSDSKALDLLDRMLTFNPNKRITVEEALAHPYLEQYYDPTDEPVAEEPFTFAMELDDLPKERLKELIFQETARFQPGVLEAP
Method: (§1) […] once with ice-cold PBS (1 × ), followed by lysis in buffer containing 25 mM Tris [pH 7.5], 0.25% sodium deoxycholate, 1% Triton X-100, supplemented with 1X protease inhibitor cocktail (Roche), and phosphatase inhibitors (10 mM NaF, 1 mM Na3VO4, and 20 mM β-glycerophosphate), unless otherwise noted. Lysates were spun at 14,000 × g for 10 min at 4 °C and supernatant was evaluated for protein content using a Pierce BCA Protein Assay (ThermoFisher Scientific). In all experiments, 25–50 μg of protein was loaded onto 10% SDS-PAGE gels or 4–20% Criterion TGX precast gradient gels (Bio-Rad), transferred to nitrocellulose membranes, and probed with the specified antibodies overnight at 4 °C in 1X TBS-Tween (Tris-buffered saline plus 0.02% Tween 20) containing 5% non-fat milk. Immunoblots were visualized using a Bio-Rad ChemiDoc imaging instrument and subsequently processed and quantified using the accompanying Bio-Rad ImageLab software. See Supplementary Figure 8 for uncropped scans of western blots shown in the main text figures.
(§2) Supplementary Figure 4 cont.
(§3) Supplementary Figure 4. Characterization of M APK fam ily degradation selectivity (related to Figures 1-2). (a) p38 M APK fam ily m em bers (α, β, δ, γ) were aligned using the T-Coffee multiple sequence alignm ent server. […] Note: JNK1 and JNK2 are expressed as two alternatively-spliced form s. […]

JNK1 = JNK1 degradation, western blot in MDA-MB-231 cells; format: cell-based, human; conditions: 0.025-2.5 µM
Method: as §1, §2, §3

p38δ:PROTAC:VHL = target: T2, p38δ:PROTAC:VHL (Homo sapiens, UniProt O15264+P40337); assay: SPR ternary binding, equimolar p38δ:PROTAC injected onto immobilized VHL; conditions: for p38δ:PROTAC:VHL t1/2: ternary complex half-life
T2 construct: encoding a region spanning amino acids 1–365; His6 (N); made in house; host or cells: E. coli BL21-CodonPlus(DE3)-RIPL (p38δ); E. coli BL21(DE3) (GST-VBC)
T2 sequence (P40337 whole entry, one chain of several, the tested form may be a part): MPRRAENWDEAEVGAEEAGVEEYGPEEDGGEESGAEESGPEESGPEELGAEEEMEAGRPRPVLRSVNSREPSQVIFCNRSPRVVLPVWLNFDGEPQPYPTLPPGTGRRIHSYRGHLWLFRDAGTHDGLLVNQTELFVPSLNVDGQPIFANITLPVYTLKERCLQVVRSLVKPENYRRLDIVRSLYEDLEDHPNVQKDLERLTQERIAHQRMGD
T2 sequence (Q15370 whole entry partner, one chain of several, the tested form may be a part): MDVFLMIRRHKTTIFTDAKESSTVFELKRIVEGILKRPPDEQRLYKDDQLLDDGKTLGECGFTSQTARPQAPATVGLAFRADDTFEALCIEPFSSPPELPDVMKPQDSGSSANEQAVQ
T2 sequence (Q15369 whole entry partner, one chain of several, the tested form may be a part): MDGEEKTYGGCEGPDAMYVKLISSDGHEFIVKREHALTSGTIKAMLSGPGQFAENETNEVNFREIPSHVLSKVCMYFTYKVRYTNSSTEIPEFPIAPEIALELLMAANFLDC
Method: SPR experiments were conducted on a Biacore 3000 instrument (GE Healthcare) at room temperature. GST antibody was immobilized through direct amination onto a carboxymethylated dextran surface (CM5) and GST-VBC was captured on the CM5 surface. This prepared surface was equilibrated over 3 h in running buffer (10 mM HEPES buffer pH 7.4, 150 mM NaCl, 0.4 mg mL^−1 BSA, 0.005% P20, 2% DMSO). All compounds were prepared in 100% DMSO stock plates with a top concentration of 500 µM in a 3× serial dilution. Compounds were transferred from the stock plate to the assay plate and diluted into running buffer without DMSO. Equimolar concentration of target protein was added to corresponding compound wells. All compounds were run as a 12-point concentration series with a final assay top concentration of 50 µM to measure p38δ:PROTAC and VHL:PROTAC binding and top concentration of 5 µM to measure p38δ:PROTAC:VHL binding. All compounds were injected for 60 s and allowed to dissociate for 300 s. Data analysis was performed in Scrubber 2 (BioLogic Software). Blanks from reference flow cell containing immobilized GST-VBC were subtracted to correct for noise and data were solvent-corrected against a standard DMSO curve. All reported Kd values represent an average of at least two replicates and were obtained by fitting to a minimum of five concentrations using a 1:1 fitting algorithm.

wild-type p38δ = target: T3, wild-type p38δ (Homo sapiens, UniProt O15264); assay: Degradation of transfected wild-type p38δ in HeLa cells; format: cell-based; conditions: 24 h
T3 construct: expressed in transfected cells; host or cells: HeLa
T3 sequence (O15264 1-365): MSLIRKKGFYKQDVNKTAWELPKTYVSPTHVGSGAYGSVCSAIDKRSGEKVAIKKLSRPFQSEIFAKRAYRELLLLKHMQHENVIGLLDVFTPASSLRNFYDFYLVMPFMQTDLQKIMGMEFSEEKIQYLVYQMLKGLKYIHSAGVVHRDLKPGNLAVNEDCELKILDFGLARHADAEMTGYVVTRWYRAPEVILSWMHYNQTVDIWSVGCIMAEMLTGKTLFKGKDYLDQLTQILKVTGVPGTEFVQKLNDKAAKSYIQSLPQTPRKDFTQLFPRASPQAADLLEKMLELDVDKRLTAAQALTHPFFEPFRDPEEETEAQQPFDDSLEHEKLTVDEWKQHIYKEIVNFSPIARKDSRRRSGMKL
Method: (§4) Mutant p38δ was generated by QuikChange Lightning site-directed mutagenesis kit (Agilent). Transfections were carried out using Lipofectamine 2000 reagent (Invitrogen) in HeLa cells seeded at 3 × 10^5 cells per six well. One microgram of FLAG-containing pcDNA5-p38delta-WT or pcDNA5-p38delta-K220ET221E was used per transfection. Opti-MEM media were changed after 6 h to DMEM (1 × ), at which point the indicated compounds were added for 24 h before harvesting.

[1] = target: T4, mutant (K220E/T221E) p38δ (Homo sapiens, UniProt O15264, K220E/T221E); assay: Degradation of transfected mutant p38δ in HeLa cells; format: cell-based; conditions: 24 h
T4 construct: expressed in transfected cells; host or cells: HeLa cells, Lipofectamine 2000, pcDNA5-p38delta-K220ET221E
T4 sequence (O15264 1-365 K220E/T221E): T3 sequence (O15264 1-365) with K220E, T221E
Method: as §4

[2] = SPR ternary, Replicate 2, read-out: koff
[3] = SPR, ternary, VHL immobilized, read-out: p38δ:PROTAC:VHL koff

For COc1cc2c(Oc3ccc(NC(=O)C4(C(=O)Nc5ccc(F)cc5)CC4)cc3F)ccnc2cc1OCCCCOCCCCOCC(=O)N[C@H](C(=O)N1C[C@H](O)C[C@H]1C(=O)NCc1ccc(-c2scnc2C)cc1)C(C)(C)C [SJFα], the ERK1 degradation (ERK1) was “neither PROTAC degrades”, the JNK1 degradation (JNK1) was “neither PROTAC degrades” and the “ternary affinity weaker than the SJFδ-induced complex” value (p38δ:PROTAC:VHL; SPR) was ~ 3 fold. For the same molecule, the koff (p38δ:PROTAC:VHL; SPR ternary, Replicate 1, read-out: koff) was 0.083 s⁻¹, the koff (p38δ:PROTAC:VHL; [2]) was 0.082 s⁻¹ and the “p38δ:PROTAC:VHL t1/2” value (p38δ:PROTAC:VHL; SPR) was 8 s. The kon (p38δ:PROTAC:VHL; SPR, ternary, VHL immobilized) was 70100 M⁻¹ s⁻¹, the koff (p38δ:PROTAC:VHL; [3]) was 0.072 s⁻¹ and the “degradation of wild-type p38δ” value (wild-type p38δ) was “not wild-type p38δ”. The “degradation of double-mutant (K220E/T221E) p38δ” value [1] was “able to degrade; also recorded: potently degrades”.

For COc1cc2c(Oc3ccc(NC(=O)C4(C(=O)Nc5ccc(F)cc5)CC4)cc3F)ccnc2cc1OCCOCCOCCOc1cc(-c2scnc2C)ccc1CNC(=O)[C@@H]1C[C@@H](O)CN1C(=O)[C@H](C(C)C)N1Cc2ccccc2C1=O [SJFδ], the ERK1 degradation (ERK1) was “neither PROTAC degrades”, the JNK1 degradation (JNK1) was “neither PROTAC degrades” and the “leftward shift of ternary affinity from the VHL:PROTAC binary affinity” value (p38δ:PROTAC:VHL; SPR) was ~ 8 fold. It also gave a koff (p38δ:PROTAC:VHL; [2]) of 0.017 s⁻¹, a Kd (p38δ:PROTAC:VHL; SPR, Replicate 1) of 358 nM and a Kd (p38δ:PROTAC:VHL; SPR, Replicate 2) of 514 nM. For the same molecule, the “p38δ:PROTAC:VHL t1/2” value (p38δ:PROTAC:VHL; SPR) was 38 s, the kon (p38δ:PROTAC:VHL; SPR, ternary, VHL immobilized) was 39600 M⁻¹ s⁻¹ and the koff (p38δ:PROTAC:VHL; [3]) was 0.018 s⁻¹. For the same molecule, the “degradation of wild-type p38δ” value (wild-type p38δ) was “able to eliminate wild-type p38δ” and the “degradation of double-mutant (K220E/T221E) p38δ” value [1] was “able to degrade”.
